Patent publication US10624829B2, “VEGFC production promoter” (Shiseido Company, Ltd., priority 2012, dated 2020)

Key:
VEGFC = test: VEGFC-inducing activity in HaCaT cells (VEGF-C ELISA of culture supernatant, normalised to cell number); type: cell-based, human; details: aromatic final concentration 0.001% to 0.01%, 48 hours culture, ELISA of supernatant divided by alamar blue fluorescence, values only in FIG. 1
Procedure: As is described in detail in the subsequent examples, screening for agents that induce a lymph vessel activating factor in the form of VEGFC was carried out by allowing various types of candidate aromatics to act on human epidermis-derived cultured cells in the form of HaCaT cells, quantifying VEGFC, and selecting aromatics having VEGFC-inducing activity as active ingredients by using the amount of VEGFC as an indicator of VEGFC-inducing activity.
Human-derived cultured cells in the form of HaCaT cells (German Cancer Research Center, Heidelberg, Germany) were cultured in DMEM medium (Gibco Low Glucose DMEM™, Life Technologies Inc.) containing 10% FBS (Standard Fetal Bovine Serum, Hyclone Laboratories Inc.) and disseminated in a 24-well plate to 15×10^4 cells/well. The medium was replaced with serum-free DMEM 24 hours after dissemination followed by culturing for 24 hours. […] The culture supernatant was recovered after culturing for 48 hours and the amount of VEGFC in the culture supernatant was quantified in accordance with the protocol of an ELISA kit (Quanikine® Human VEGF-C Immunoassay (R&D Systems Inc., Minneapolis, Minn.)). In addition, alamar blue (TREK Diagnostic Systems, Inc., Cleveland, US) was added to the cells after recovering the culture supernatant followed by measuring the number of cells based on their fluorescence intensity (Ex: 544 nm, Em: 590 nm). […]

HaCaT cells = test: Cytotoxicity / cell number by alamar blue fluorescence in HaCaT cells; type: cell-based, human; details: aromatic final concentration 0.001% to 0.01%, 48 hours, alamar blue (Ex: 544 nm, Em: 590 nm)
Procedure: Human-derived cultured cells in the form of HaCaT cells (German Cancer Research Center, Heidelberg, Germany) were cultured in DMEM medium (Gibco Low Glucose DMEM™, Life Technologies Inc.) containing 10% FBS (Standard Fetal Bovine Serum, Hyclone Laboratories Inc.) and disseminated in a 24-well plate to 15×10^4 cells/well. The medium was replaced with serum-free DMEM 24 hours after dissemination followed by culturing for 24 hours. Subsequently, each aromatic dissolved in ethanol was added (aromatic final concentration: 0.001% to 0.01%). Ethanol was used as a control. The culture supernatant was recovered after culturing for 48 hours and the amount of VEGFC in the culture supernatant was quantified in accordance with the protocol of an ELISA kit (Quanikine® Human VEGF-C Immunoassay (R&D Systems Inc., Minneapolis, Minn.)). In addition, alamar blue (TREK Diagnostic Systems, Inc., Cleveland, US) was added to the cells after recovering the culture supernatant followed by measuring the number of cells based on their fluorescence intensity (Ex: 544 nm, Em: 590 nm). The amount of VEGFC in the supernatant was divided by fluorescence intensity, and the relative VEGFC-inducing activity per cell based on a value of 100 for the control (ethanol) is shown in FIG. 1.

Row | SMILES | relative VEGFC-inducing activity per cell based on a value of 100 for the control (ethanol) (VEGFC) | cytotoxicity (HaCaT cells)
1 | CC(C)=CC1CC(C)CCO1 (stereo not shown) [rose oxide, Rose oxide] | demonstrated VEGFC-inducing activity | without demonstrating cytotoxicity
2 | CC(=O)OCCC(C)CCC=C(C)C (stereo not shown) [citronellyl acetate, Citronellyl acetate] | demonstrated VEGFC-inducing activity | without demonstrating cytotoxicity
